# Read-outs that look alike come from different tables or passages of the source. Marks after values point to notes of the source that are not given here.
# Tests used:
# [1] = molecular target: E. coli (Ec) DHFR (Escherichia coli (strain K12), UniProt P0ABQ4); assay: E. coli DHFR enzyme inhibition (NADPH oxidation, 340 nm); format: biochemical
# [2] = test system: E. coli (ATCC 25922); assay: E. coli MIC, microdilution broth assay; format: cell-based, Escherichia coli
# Procedure: Minimum inhibitory concentrations were determined using E. coli (ATCC 25922) and the microdilution broth assay with an inoculum of […] CFU/mL in Isosensitest Broth (Oxoid).
# [3] = test system: S. aureus ATCC strain 43300; assay: microbe, parasite or virus in culture; format: cell-based, Staphylococcus aureus; details: for MIC Sa43300: Table 12, wild-type strain
# [4] = test system: E. coli NR698; format: cell-based, Escherichia coli
# [5] = molecular target: S. aureus (Sa) DHFR (Staphylococcus aureus, UniProt P0A017); format: biochemical; details: Table 2
# [6] = test system: Sa(H30N) strain
# [7] = test system: Mtb Erdman; assay: Mtb Erdman MIC, microtiter broth dilution; format: cell-based, Mycobacterium tuberculosis
# Procedure: (§1) (provided by Leonid Heifets).
# (§2) Each isolate was tested in duplicate.
# [8] = test system: Mtb; assay: M. tuberculosis MIC, microtiter broth dilution (Table 6); format: cell-based, Mycobacterium tuberculosis
# Procedure: as §1, §2
# [9] = test system: Mtb 56; format: cell-based, Mycobacterium tuberculosis; details: MDR strain
# [10] = test system: Mtb C-31; format: cell-based, Mycobacterium tuberculosis; details: MDR strain
# [11] = test system: Mtb 5; format: cell-based, Mycobacterium tuberculosis; details: XDR strain
# [12] = test system: Mtb 365; format: cell-based, Mycobacterium tuberculosis; details: MDR strain
# [13] = test system: Mtb 352; format: cell-based, Mycobacterium tuberculosis; details: MDR strain
# [14] = molecular target: MtbDHFR (Mycobacterium tuberculosis (strain ATCC 25618 / H37Rv), UniProt P9WNX1); assay: M. tuberculosis DHFR enzyme inhibition; format: biochemical
# [15] = test system: Mtb 276; format: cell-based, Mycobacterium tuberculosis; details: MDR strain
# [16] = test system: Sa43300; details: previously reported studies, S. aureus 43300; cited from earlier work
# [17] = test system: Sa43300; format: cell-based, Staphylococcus aureus; details: progenitor Sa43300, 6× MIC
# [18] = test system: Sa(H30N) strain; assay: microbe, parasite or virus in culture; details: Staphylococcus aureus, read-out: MIC Sa(H30N)
smiles,measurement,setting,value
CCc1nc(N)nc(N)c1C#CCc1cc(-c2ccccc2C(=O)O)ccc1OC [Compound 13],IC50,[1]; Table 2,195 nM
same,MIC E. coli 25922,"[2]; Table 2, wild-type E. coli",>32 µg/mL
same,MIC S. aureus 43300,[3],>20 µg/mL
same,MIC E. coli NR698,[4]; Table 2,20 µg/mL
same,IC50,[5],359 nM
CCc1nc(N)nc(N)c1C#C[C@@H](C)c1cc(OC)cc(-c2ccc(C(=O)O)cc2)c1 [Compound 32],MIC Sa(H30N),[6],0.0781 µg/mL
same,MIC E. coli 25922,"[2]; Table 2, wild-type E. coli",10 µg/mL
same,MIC S. aureus 43300,[3],0.0098 µg/mL
same,MIC Sa43300,[3],0.0098 µg/mL
same,MIC E. coli NR698,[4]; Table 2,0.0024 µg/mL
"NNC(=O)c1ccncc1 [INH, Isoniazid, reference compound]",MIC,"[7]; Mycobacterium tuberculosis, ERDMAN",0.125 µg/mL
same,MIC,[8]; Mycobacterium tuberculosis,0.03 µg/mL
CCc1nc(N)nc(N)c1C#C[C@@H](C)c1cc(-c2ccc(C(=O)OC)cc2)ccc1OC [Compound 34],IC50,[1]; Table 2,172 nM
same,MIC E. coli 25922,"[2]; Table 2, wild-type E. coli",>20* μg/mL
same,MIC S. aureus 43300,[3]; Table 2,10 µg/mL
same,MIC E. coli NR698,[4]; Table 2,1.875 µg/mL
same,IC50,[5],205 nM
"CCc1nc(N)nc(N)c1C#CC(C)c1cc(OC)cc(-c2ccncc2)c1 (stereo not drawn) [Compound D, reference compound]",MIC Sa(H30N),[6],0.625 µg/mL
same,MIC Sa43300,[3],0.0391 µg/mL
CCc1nc(N)nc(N)c1C#CC(C)c1cc(OC)cc(-c2ccc(C(=O)O)cc2)c1 (stereo not drawn) [Compound 58],MIC Mtb56,[9],0.06 µg/mL
same,MIC Mtb C-31,[10],8 µg/mL
same,MIC Mtb Erdman,[7],<0.03 µg/mL
same,MIC Mtb 5,[11],0.25 µg/mL
same,MIC Mtb,[8],<0.03 µg/mL
same,MIC Mtb 365,[12],<0.03 µg/mL
same,MIC Mtb 352,[13],0.06 µg/mL
CCc1nc(N)nc(N)c1C#CCc1cc(OC)c(OC)c(-c2ccncc2)c1 [Compound 60],MIC Sa(H30N),[6],0.625 µg/mL
same,MIC Sa43300,[3],0.0195 µg/mL
CCc1nc(N)nc(N)c1C#CCc1cc2c(c(-c3cc(F)c(O)c(F)c3)c1)OCO2 [Compound 39],IC50,[1]; Table 3,625 nM
same,MIC E. coli 25922,[2]; Table 3,0.625 µg/mL
same,MIC E. coli NR698,[4]; Table 3,0.001 µg/mL
CCc1nc(N)nc(N)c1C#CCc1cc2c(c(-c3ccc(O)cc3)c1)OCO2 [Compound 37],IC50,[1]; Table 3,2500 nM
same,MIC E. coli 25922,[2]; Table 3,0.625 µg/mL
same,MIC E. coli NR698,[4]; Table 3,0.002 µg/mL
"CCc1nc(N)nc(N)c1C#CC(C)c1cc2c(c(-c3ccncc3)c1)OCO2 (stereo not drawn) [F, reference compound]",MIC Sa(H30N),[6],2.5 µg/mL
same,MIC Sa43300,[3],0.0195 µg/mL
CCc1nc(N)nc(N)c1C#CCc1cc(OC)cc(-c2ccc(C(=O)O)cc2)c1 [Compound 16],MIC Sa(H30N),[6],0.1563 µg/mL
same,IC50,[1]; Table 2,507 nM
same,MIC E. coli 25922,"[2]; Table 2, wild-type E. coli",>20 µg/mL
same,MIC S. aureus 43300,[3],0.0195 µg/mL
same,MIC Sa43300,[3],0.0195 µg/mL
same,MIC E. coli NR698,[4]; Table 2,0.0049 µg/mL
CCc1nc(N)nc(N)c1C#CCc1cc(-c2cncn2C)ccc1OC [Compound 56],IC50,[14],126 nM
same,MIC Mtb56,[9],4 µg/mL
same,MIC Mtb C-31,[10],8 µg/mL
same,MIC Mtb Erdman,[7],4 µg/mL
same,MIC Mtb 5,[11],4 µg/mL
same,MIC Mtb,[8],2 µg/mL
same,MIC Mtb 365,[12],4 µg/mL
same,MIC Mtb 276,[15],4 µg/mL
same,MIC Mtb 352,[13],4 µg/mL
CCc1nc(N)nc(N)c1C#CC(C)c1cc(OC)cc(-c2ccncc2)c1 (stereo not drawn) [Compound A],mutation frequencies of mutants F98Y and F98I,[16],10^−10
same,Mutational Frequency of DHFR mutation F98Y,[17],3.11 × 10^−11
same,Mutational Frequency of DHFR mutation H30N,[17],4.67 × 10^−11
same,Mutational Frequency of DHFR mutation H149R,[17],1.65 × 10^−10
same,MIC,"[3]; Staphylococcus aureus, ATCC43300, read-out: MIC Sa43300",0.0781 µg/mL
same,MIC,[18],2.5 µg/mL
CCc1nc(N)nc(N)c1C#C[C@@H](C)c1cc(-c2ccc(C(=O)O)cc2)ccc1OC [Compound 30],MIC E. coli 25922,"[2]; Table 2, wild-type E. coli",20 µg/mL
same,MIC S. aureus 43300,[3],0.0195 µg/mL
same,MIC E. coli NR698,[4]; Table 2,0.0012 µg/mL
